Assay results reported in patent US7511048B2, “Pyrimidothienoindazoles” (Bayer Pharmaceuticals Corporation, priority 2004, dated 2009).
Structures can show the parent of a compound that is named as a salt.

Experiments:
[1] = test system: A431 cells (human epidermoid carcinoma); test: In vitro tumor cell proliferation assay (Cell Titer-Glo luminescent cell viability), A431 cells; type: cell-based; conditions: A-431, 72 h drug exposure, ATP luminescence readout, read-out: IC50, anti-proliferative activity (inhibition of cell proliferation) in A431 cells
Description: (§1) The tumor cell proliferation assay used to test the compounds of the present invention involves a readout called Cell Titer-Glow® Luminescent Cell Viability Assay developed by Promega® (Cunningham, B A “A Growing Issue: Cell Proliferation Assays, Modern kits ease quantification of cell growth” The Scientist 2001, 15(13), 26, and Crouch, S P et al., “The use of ATP bioluminescence as a measure of cell proliferation and cytotoxicity” Journal of Immunological Methods 1993, 160, 81-88), that measures inhibition of cell proliferation. Generation of a luminescent signal corresponds to the amount of ATP present, which is directly proportional to the number of metabolically active (proliferating) cells.
(§2) A431 cells (human epidermoid carcinoma, ATCC # HTB-20) and BT474 (human breast carcinoma, ATCC # CRL-1555) were plated at a density of 2.5×10^3 cells/well in 96 well black-clear bottom tissue culture plates in RPMI media with 10% Fetal Bovine Serum and incubated at 37° C. Twenty-four h later, test compounds are added at a final concentration range from as high 100 μm to as low 64 pM depend on the activities of the tested compounds in serial dilutions at a final DMSO concentration of 0.1%. Cells were incubated for 72 h at 37° C. in complete growth media after addition of the test compound. After 72 h of drug exposure, the plates were equilibrated to room temperature for approximately 30 min. Then, using a Promega Cell Titer Glo Luminescent® assay kit, lysis buffer containing 100 microliters of the enzyme luciferase and its substrate, luciferin mixture, was added to each well. The plates were mixed for 2 min on orbital shaker to ensure cell lysis and incubated for 10 min at room temperature to stabilize luminescence signal. The samples were read on VICTOR 2 using Luminescence protocol, and analyzed with Analyze5 software to generate IC50 values.
(§3) For determination of IC50's, a linear regression analysis can be used to determine drug concentration which results in a 50% inhibition of cell proliferation using this assay format. In A431 cells, Examples 1-7, 9-11, 14-18, and 20-21 have IC50's≦5 μM; whereas examples 8, 12, 13, 19, and 22 have IC50's≦50 μM. In BT474 cells, examples 1-7, 9-11, 13-18, and 20-22 have IC50's≦50 μM; whereas examples 8, 12, and 19 have IC50's≦50 μM.

[2] = test system: BT474 (human breast carcinoma); test: In vitro tumor cell proliferation assay (Cell Titer-Glo luminescent cell viability), BT474 cells; type: cell-based; conditions: BT-474, 72 h drug exposure, ATP luminescence readout, read-out: IC50, anti-proliferative activity (inhibition of cell proliferation) in BT474 cells
Description: as §1, §2, §3

Row | IC50 [1] | IC50 [2] | SMILES
1 | ≤ 50 µM | ≤ 50 µM | COCCN(C)CCn1cc2c(ccc3c2sc2ncnc(Nc4ccc(F)c(Cl)c4)c23)n1 [Example 19, N-(3-chloro-4-fluorophenyl)-2-{2-[(2-methoxyethyl)(methyl)amino]ethyl}-2H-pyrimido[5′,4′:4,5]thieno[2,3-e]indazol-6-amine]
2 | ≤ 5 µM | ≤ 50 µM | Fc1ccc(Nc2ncnc3sc4c5cn(CCN6CCCC6)nc5ccc4c23)cc1Cl [Example 17, N-(3-chloro-4-fluorophenyl)-2-(2-pyrrolidin-1-ylethyl)-2H-pyrimido[5′,4′:4,5]thieno[2,3-e]indazol-6-amine]
3 | ≤ 5 µM | ≤ 50 µM | COCCN1CCN(CCn2cc3c(ccc4c3sc3ncnc(Nc5ccc(F)c(Cl)c5)c34)n2)CC1 [Example 15, N-(3-chloro-4-fluorophenyl)-2-{2-[4-(2-methoxyethyl)piperazin-1-yl]ethyl}-2H-pyrimido[5′,4′:4,5]thieno[2,3-e]indazol-6-amine]
4 | ≤ 5 µM | ≤ 50 µM | Fc1ccc(Nc2ncnc3sc4c5cn(CCN6CCCCC6)nc5ccc4c23)cc1Cl [Example 16, N-(3-chloro-4-fluorophenyl)-2-(2-piperidin-1-ylethyl)-2H-pyrimido[5′,4′:4,5]thieno[2,3-e]indazol-6-amine]
5 | ≤ 5 µM | ≤ 50 µM | CN(C)[C@H]1CCN(CCn2ncc3c4sc5ncnc(Nc6ccc(F)c(Cl)c6)c5c4ccc32)C1 [Example 20, N-(3-chloro-4-fluorophenyl)-3-{2-[(3S)-3-(dimethylamino)pyrrolidin-1-yl]ethyl}-3H-pyrimido[5′,4′:4,5]thieno[2,3-e]indazol-6-amine]
6 | ≤ 50 µM | ≤ 50 µM | Clc1cc(Nc2ncnc3sc4c(ccc5c4cnn5CCBr)c23)ccc1OCc1ccccn1 [Example 22, 3-(2-bromoethyl)-N-[3-chloro-4-(pyridin-2-ylmethoxy)phenyl]-3H-pyrimido[5′,4′:4,5]thieno[2,3-e]indazol-6-amine]
7 | ≤ 5 µM | ≤ 50 µM | Fc1ccc(Nc2ncnc3sc4c5cn(CCN6CCN(Cc7ccncc7)CC6)nc5ccc4c23)cc1Cl [Example 18, N-(3-chloro-4-fluorophenyl)-2-{2-[4-(pyridin-4-ylmethyl)piperazin-1-yl]ethyl}-2H-pyrimido[5′,4′:4,5]thieno[2,3-e]indazol-6-amine]
8 | ≤ 5 µM | ≤ 50 µM | OCCn1ncc2c3sc4ncnc(Nc5ccc(OCc6cccc(F)c6)c(Cl)c5)c4c3ccc21 [Example 21, 2-[6-({3-chloro-4-[(3-fluorobenzyl)oxy]phenyl}amino)-3H-pyrimido[5′,4′:4,5]thieno[2,3-e]indazol-3-yl]ethanol]

Continued, compound first:

Row | SMILES | IC50 [1] | IC50 [2]
9 | COCCN(CCOC)CCn1cc2c(ccc3c2sc2ncnc(Nc4ccc(F)c(Cl)c4)c23)n1 [Example 8, 2-{2-[bis(2-methoxyethyl)amino]ethyl}-N-(3-chloro-4-fluorophenyl)-2H-pyrimido[5′,4′:4,5]thieno[2,3-e]indazol-6-amine] | ≤ 50 µM | ≤ 50 µM
10 | Fc1ccc(Nc2ncnc3sc4c5cn(CCn6ccnc6)nc5ccc4c23)cc1Cl [Example 12, N-(3-chloro-4-fluorophenyl)-2-[2-(1H-imidazol-1-yl)ethyl]-2H-pyrimido[5′,4′:4,5]thieno[2,3-e]indazol-6-amine] | ≤ 50 µM | ≤ 50 µM
11 | CN(C)[C@H]1CCN(CCn2cc3c(ccc4c3sc3ncnc(Nc5ccc(F)c(Cl)c5)c34)n2)C1 [Example 13, N-(3-chloro-4-fluorophenyl)-2-{2-[(3S)-3-(dimethylamino)pyrrolidin-1-yl]ethyl}-2H-pyrimido[5′,4′:4,5]thieno[2,3-e]indazol-6-amine] | ≤ 50 µM | ≤ 50 µM
12 | CN(C)[C@@H]1CCN(CCn2cc3c(ccc4c3sc3ncnc(Nc5ccc(F)c(Cl)c5)c34)n2)C1 [Example 4] | ≤ 5 µM | ≤ 50 µM
13 | OCCn1cc2c(ccc3c2sc2ncnc(Nc4ccc(F)c(Cl)c4)c23)n1 [Example 1, 2-{6-[(3-chloro-4fluorophenyl)amino]-2H-pyrimido[5′,4′:4,5]thieno[2,3-e]indazol-2-yl}ethanol] | ≤ 5 µM | ≤ 50 µM
14 | CN1CCN(CCn2cc3c(ccc4c3sc3ncnc(Nc5ccc(F)c(Cl)c5)c34)n2)CC1 [Example 11, N-(3-chloro-4-fluorophenyl)-2-[2-(4-methylpiperazin-1-yl)ethyl]-2H-pyrimido[5′,4′:4,5]thieno[2,3-e]indazol-6-amine] | ≤ 5 µM | ≤ 50 µM
15 | CS(=O)(=O)CCNCCn1cc2c(ccc3c2sc2ncnc(Nc4ccc(F)c(Cl)c4)c23)n1 [Example 3, N-(3-chloro-4-fluorophenyl)-2-(2-{[2-(methylsulfonyl)ethyl]amino}ethyl)-2H-pyrimido[5′,4′:4,5]thieno[2,3-e]indazol-6-amine] | ≤ 5 µM | ≤ 50 µM
16 | COCCNCCn1cc2c(ccc3c2sc2ncnc(Nc4ccc(F)c(Cl)c4)c23)n1 [Example 6, N-(3-chloro-4-fluorophenyl)-2-{2-[(2-methoxyethyl)amino]ethyl}-2H-pyrimido[5′,4′:4,5]thieno[2,3-e]indazol-6-amine] | ≤ 5 µM | ≤ 50 µM
17 | Fc1ccc(Nc2ncnc3sc4c5cn(CCN6CCNCC6)nc5ccc4c23)cc1Cl [Example 10, N-(3-chloro-4-fluorophenyl)-2-(2-piperazin-1-ylethyl)-2H-pyrimido[5′,4′:4,5]thieno[2,3-e]indazol-6-amine] | ≤ 5 µM | ≤ 50 µM
18 | Fc1ccc(Nc2ncnc3sc4c5cn(CCNCCN6CCOCC6)nc5ccc4c23)cc1Cl [Example 5, N-(3-chloro-4-fluorophenyl)-2-{2-[(2-morpholin-4-ylethyl)amino]ethyl}-2H-pyrimido[5′,4′:4,5]thieno[2,3-e]indazol-6-amine] | ≤ 5 µM | ≤ 50 µM
19 | CS(=O)(=O)OCCn1cc2c(ccc3c2sc2ncnc(Nc4ccc(F)c(Cl)c4)c23)n1 [Example 2, 2-{6-[(3-chloro-4fluorophenyl)amino]-2H-pyrimido[5′,4′:4,5]thieno[2,3-e]indazol-2-yl}ethylmethanesulfonate] | ≤ 5 µM | ≤ 50 µM
20 | OCCNCCn1cc2c(ccc3c2sc2ncnc(Nc4ccc(F)c(Cl)c4)c23)n1 [Example 7, 2-[(2-{6-[(3-chloro-4-fluorophenyl)amino]-2H-pyrimido[5′,4′:4,5]thieno[2,3-e]indazol-2-yl}ethyl)amino]ethanol] | ≤ 5 µM | ≤ 50 µM
21 | Fc1ccc(Nc2ncnc3sc4c5cn(CCN6CCOCC6)nc5ccc4c23)cc1Cl [Example 9, N-(3-chloro-4-fluorophenyl)-2-(2-morpholin-4-ylethyl)-2H-pyrimido[5′,4′:4,5]thieno[2,3-e]indazol-6-amine] | ≤ 5 µM | ≤ 50 µM
22 | OCCN(CCO)CCn1cc2c(ccc3c2sc2ncnc(Nc4ccc(F)c(Cl)c4)c23)n1 [Example 14, 2,2′-[(2-{6-[(3-chloro-4-fluorophenyl)amino]-2H-pyrimido[5′,4′:4,5]thieno[2,3-e]indazol-2-yl}ethyl)imino]diethanoltrifluoroacetate (salt)] | ≤ 5 µM | ≤ 50 µM
